Test results: patent US20250269039A1, “THERAPEUTIC-OLIGONUCLEOTIDES ACTIVATED BY NUCLEASES” (priority 2020, published 2025)
≈ marks a conversion by molar mass, not a printed value. Like-named read-outs stand apart in the source and are kept apart here.

Key:
E. coli ATCC 25922 = test: Broth microdilution MIC and growth inhibition (control bacteria); format: cell-based, Escherichia coli; details: for MIC: TOUCAN as NA equivalent
Description: Bacteria strains. S. aureus NCTC 12493 (MRSA), S. aureus ATCC 29213 (MSSA), S. aureus ATCC 43300 (MRSA), S. aureus ATCC 1707 (MRSA), S. aureus ATCC 1717 (MRSA), S. aureus ATCC 1747 (MRSA), S. aureus ATCC 1761 (MRSA), S. aureus ATCC 1766 (MRSA), S. aureus ATCC 1768 (MRSA), S. epidermidis ATCC 35984, E. coli ATCC 25922, K. pneumoniae ATCC 13883, P. mirabilis ATCC 25933, S. enterica ATCC 14028 and P. aeruginosa ATCC 10145 strains were used in this study. Bacteria were initially inoculated onto tryptone soy agar with 5% defibrinated sheep blood (Thermo Fisher Scientific, Inc., Waltham, MA, USA) and incubated at 37° C. for 24 hours. Then, single colonies of each strain were transferred to tryptone soy broth (Thermo Fisher Scientific) for the nuclease activity assay or antimicrobial susceptibility testing, respectively.
(§1) Antimicrobial susceptibility testing. Minimal inhibitory concentrations (MIC) of all nucleoside analogues and TOUCANs against each bacteria strain were determined using broth microdilution method. A single colony obtained from overnight culture on tryptone soy agar with 5% defibrinated sheep blood was inoculated in cation-adjusted Mueller Hinton Broth and adjusted to 10^6 CFU/mL. TOUCANs were prepared in PBS+/+ (treatment) and serial dilutions were made in 96-well polystyrene round bottom microwell plates with 50 μL final volume for each concentration. PBS+/+ was used as untreated control. Next, 50 μL bacteria solutions were added to each well to a final bacteria concentration of 5×10^5 CFU/mL. Plates were incubated at 37° C. in Cytation 1 Cell Imaging Multimode Reader. Growth curves were obtained by measuring optical densities at 600 nm every 10 minutes for 18 hours using Cytation 1 Cell Imaging Multimode Reader. In addition, visual inspection of the plates was carried out after 18 hours and photographs were taken. MICs were defined as the lowest drug concentration in the microwell at which bacterial growth was not visible at the end of the incubation period. Besides MIC determination, specificity of TOUCAN 7mGe was also shown with subcultures on chromogenic media. For this purpose, 5 μL of different concentrations of each strain were inoculated onto CHROM agar Orientation Media (Becton Dickinson) and the bacterial growth of each bacteria strain tested was observed by naked eye after incubation at 37° C. for 24 hours. Finally, photographs of the chromogenic media were taken.

S. aureus = test: Growth inhibition curves / MICs in S. aureus cultures (strain not named or summary over strains); format: cell-based, Staphylococcus aureus; details: Staphylococcus aureus, read-out: MIC values over all S. aureus strains tested
Procedure: as §1

[1] = Complete blood counts of infected/treated mice; details: for percentage of neutrophils in blood: infected treated mice, after 24 hours, FIG. 7i; for BAS / BAS % / EO / EO % / HCT / HGB / LYM / LYM % / MCH / MCHC / MCV / MON / MON % / NE / NE % / PLT / RBC / RET / RET % / WBC: infected/treated mice, blood after 24 hours, AVG, n = 4; for change of red blood cells (RBCs), hematocrit and hemoglobin (acute blood toxicity): treated mice versus uninfected and placebo groups, FIG. 11

## O=c1[nH]c(=O)n([C@H]2C[C@H](O)[C@@H](CO)O2)cc1F [Floxuridine, reference compound]
E. coli ATCC 25922; Escherichia coli, ATCC25922, 18 h, read-out: MIC
  MIC: 20 µg/mL
S. aureus
  MIC: 0.005 to 0.32 µg/mL (≈ 0.0203 to 1.3 µM)
[1]
  percentage of neutrophils in blood: 30.3%
  BAS: 0.0 10^9/L
  BAS %: 0.5%
  EO: 0.0 10^9/L
  EO %: 1.0%
  HCT: 40.8%
  HGB: 12.8 g/dL
  LYM: 1.1 10^9/L
  LYM %: 48.9%
  MCH: 14.8 pg
  MCHC: 31.5 g/dL
  MCV: 47.4 fL
  MON: 0.3 10^9/L
  MON %: 13.5%
  NE: 0.7 10^9/L
  NE %: 36.1%
  PLT: 599.3 K/μL
  RBC: 8.6e+12 L⁻¹
  RET: 384.9 K/μL
  RET %: 4.5%
  WBC: 2.2 10^9/L
  change of red blood cells (RBCs), hematocrit and hemoglobin (acute blood toxicity): reduction

## mU-mU-mU-mU-T-T-Fx [TOUCAN 7mFx]
E. coli ATCC 25922; 18 h
  MIC: >40 µg/mL
E. coli ATCC 25922; mean ± SD, n = 3
  TOUCAN % Growth inhibition: 0 ± 0.00%
[1]
  percentage of neutrophils in blood: 13.8%
  BAS: 0.0 10^9/L
  BAS %: 0.3%
  EO: 0.0 10^9/L
  EO %: 1.3%
  HCT: 44.5%
  HGB: 14.0 g/dL
  LYM: 1.6 10^9/L
  LYM %: 68.6%
  MCH: 15.0 pg
  MCHC: 31.4 g/dL
  MCV: 47.9 fL
  MON: 0.4 10^9/L
  MON %: 15.7%
  NE: 0.3 10^9/L
  NE %: 14.1%
  PLT: 630.0 K/μL
  RBC: 9.3e+12 L⁻¹
  RET: 257.7 K/μL
  RET %: 2.8%
  WBC: 2.4 10^9/L
  change of red blood cells (RBCs), hematocrit and hemoglobin (acute blood toxicity): no difference
